Laboratory results published in publication PMC9921564, “Novel Indole-Containing Hybrids Derived from Millepachine: Synthesis, Biological Evaluation and Antitumor Mechanism Study” (Molecules, 2023).

Tests used:
[1] = test system: Caski (human epithelial cervical cancer cell line); test: CCK-8 antiproliferative assay, Caski; assay type: cell-based; details: Ca-Ski, 48 h, read-out: IC50, Mean ± SE, Caski
caspase 3 = caspase 3 activity evaluation; assay type: cell-based, human; details: A549, 10, 20 and 50 nM
Method: To further elucidate the mechanism of cell death caused by the cytotoxicity of compound 14b, the Hoechst 33342 fluorochrome was used to observe the nucleus morphology, Annexin V-FITC double staining was performed to distinguish the apoptotic cells, and the caspase 3 colorimetric assay kit was used to detect the activity of caspase 3. […] At the early stage of apoptosis, different types of cells turn phosphatidylserine (PS) out toward the cell surface, that is, the outside of the cell membrane, which can be selectively marked with Annexin V. Additionally, in the late stage of apoptosis, the integrity of cell membrane is lost and can be stained with PI. […] Finally, considering the activation of caspase 3 is a central event in the process of apoptosis, the activity of caspase 3 was also evaluated.
Figure 4 Induction of apoptosis by compound 14b. […] (B) The percentages of cells in each apoptosis quantitated by flow cytometry through Annexin V-FITC double staining analysis. […] (C) The caspase 3 activity detected by the caspase 3 colorimetric assay kit after A549 cells were treated with compound 14b at concentrations of 10, 20 and 50 nM for 24 h. […]
samples were fixed in ice-cold 70% ethanol overnight and removed with ice-cold PBS for three times. […] After the incubation, the prepared cell samples were immediately analyzed. […]

## COc1ccc(C(=O)c2ccc3c(ccn3C)c2)c2c1C=CC(C)(C)O2 [compound 14b, (5-methoxy-2,2-dimethyl-2H-chromen-8-yl)(1-methyl-1H-indol-5-yl)methanone]
[1]
  IC50: 37 ± 3 nM
Caspase 3
  activity of caspase 3: significantly activated and increased in a dose- and time-dependent manner
